Assay results as given in the supplement of paper PMC10307832.

Columns and labels:
Experiment in all cases: relative viability (nuclei count vs DMSO), 5 days (fraction); higher = more cells survive
[1] = compound: COc1cc(Nc2ncc(F)c(Nc3ccc4c(n3)NC(=O)C(C)(C)O4)n2)cc(OC)c1OC [R406] + CC(=O)c1c(C)c2cnc(Nc3ccc(N4CCNCC4)cn3)nc2n(C2CCCC2)c1=O [Palbociclib] (partner 0.5 µM)
In short: (§1)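 Dosing by pin tool came one day after lung cancer cell lines were seeded in 1536-well plates, using either one drug or a fixed anchor-drug dose plus five library-drug doses (not always all listed) in √10 steps. After 5 days, nuclei were counted on 4× images. Relative viability is treated-well nuclei count divided by vehicle-well nuclei count, and values are medians of duplicate plates.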

[2] = compound: O=C(/C=C/c1cccnc1)NCCCCC1CCN(C(=O)c2ccccc2)CC1 [Daporinad] + C[C@@H](Oc1cc(-c2cnn(C3CCNCC3)c2)cnc1N)c1c(Cl)ccc(F)c1Cl [Crizotinib] (partner 1 µM)
In short: as §1

[3] = compound: O=C(/C=C/c1cccnc1)NCCCCC1CCN(C(=O)c2ccccc2)CC1 [Daporinad] + Nc1ncn([C@H]2C[C@H](O)[C@@H](CO)O2)c(=O)n1 [Decitabine] (partner 2 µM)
In short: as §1

[4] = compound: COc1cc(Nc2ncc(F)c(Nc3ccc4c(n3)NC(=O)C(C)(C)O4)n2)cc(OC)c1OC [R406] + NC(=O)Nc1cc(-c2cccc(F)c2)sc1C(=O)N[C@H]1CCCNC1 [AZD7762] (partner 0.2 µM)
In short: as §1

| Cell Line | relative viability ([1]; first compound 0.08 µM) | relative viability ([1]; first compound 0.253 µM) | relative viability ([1]; first compound 0.8 µM) | relative viability ([1]; first compound 2.53 µM) | relative viability ([1]; first compound 8 µM) | relative viability ([2]; first compound 0.0005 µM) | relative viability ([2]; first compound 0.001581 µM) | relative viability ([2]; first compound 0.005 µM) | relative viability ([2]; first compound 0.01581 µM) | relative viability ([3]; first compound 0.0005 µM) | relative viability ([3]; first compound 0.001581 µM) | relative viability ([3]; first compound 0.005 µM) | relative viability ([3]; first compound 0.01581 µM) | relative viability ([4]; first compound 0.08 µM) | relative viability ([4]; first compound 0.253 µM) | relative viability ([4]; first compound 0.8 µM) | relative viability ([4]; first compound 2.53 µM) | relative viability ([4]; first compound 8 µM) |
| --- | --- | --- | --- | --- | --- | --- | --- | --- | --- | --- | --- | --- | --- | --- | --- | --- | --- | --- |
| PC-14 | 0.58 | 0.666 | 0.735 | 0.346 | 0.146 | 0.911 | 0.876 | 0.913 | 0.651 | 0.189 | 0.199 | 0.23 | 0.144 | 0.296 | 0.435 | 0.418 | 0.403 | 0.281 |
| HARA | 0.334 | 0.198 | 0.223 | 0.264 | 0.132 | 1.05 | 1.07 | 1.07 | 0.291 | 0.351 | 0.496 | 0.442 | 0.207 | 0.272 | 0.469 | 0.257 | 0.306 | 0.305 |
| NCI-H2087 | 0.231 | 0.26 | 0.26 | 0.23 | 0.243 | 0.75 | 0.708 | 0.945 | 0.674 | 0.264 | 0.317 | 0.329 | 0.277 | 1.36 | 1.47 | 1.33 | 1.06 | 1.25 |
| NCI-H1437 | 0.318 | 0.349 | 0.363 | 0.391 | 0.229 | 0.795 | 0.956 | 1.02 | 0.855 | 0.554 | 0.565 | 0.614 | 0.575 | 1.04 | 1.19 | 1.13 | 1.05 | 1.05 |
| NCI-H358 | 0.12 | 0.192 | 0.126 | 0.0867 | 0.0882 | 0.693 | 0.709 | 0.684 | 0.562 | 0.215 | 0.256 | 0.233 | 0.194 | 0.502 | 0.472 | 0.509 | 0.272 | 0.217 |
| NCI-H1792 | 0.603 | 0.721 | 0.708 | 0.506 | 0.518 | 0.916 | 1.01 | 0.844 | 0.976 | 0.545 | 0.65 | 0.683 | 0.406 | 0.75 | 0.615 | 0.908 | 0.283 | 0.378 |
| ChaGo-K-1 | 0.768 | 0.98 | 1.02 | 0.928 | 0.706 | 1.15 | 1.18 | 0.896 | 0.379 | 0.534 | 0.532 | 0.355 | 0.246 | 0.799 | 0.957 | 0.999 | 0.873 | 0.744 |
| LK-2 | 0.592 | 0.679 | 0.854 | 0.574 | 0.542 | 0.327 | 0.32 | 0.296 | 0.283 | 0.338 | 0.323 | 0.228 | 0.13 | 0.373 | 0.407 | 0.333 | 0.354 | 0.104 |
| 201T | 0.375 | 0.399 | 0.349 | 0.394 | 0.285 | 0.954 | 1.05 | 1.04 | 1.03 | 0.849 | 0.917 | 0.832 | 0.881 | 0.615 | 0.685 | 0.664 | 0.762 | 0.836 |
| HCC-44 | 0.945 | 0.982 | 0.858 | 1.02 | 1.16 | 0.768 | 0.787 | 0.899 | 0.747 | 0.921 | 0.988 | 1.04 | 0.95 | 0.974 | 1.01 | 0.995 | 1.03 | 1.18 |
| NCI-H647 | 0.387 | 0.37 | 0.426 | 0.261 | 0.0695 | 1.27 | 0.974 | 1.43 | 1.11 | 0.37 | 0.425 | 0.448 | 0.366 | 0.373 | 0.419 | 0.467 | 0.413 | 0.29 |
| H3255 | 0.295 | 0.331 | 0.336 | 0.358 | 0.284 | 0.782 | 0.937 | 0.853 | 0.864 | 0.464 | 0.605 | 0.863 | 0.816 | 0.923 | 0.983 | 0.823 | 0.774 | 0.747 |
| NCI-H650 | 0.34 | 0.412 | 0.322 | 0.289 | 0.253 | 0.736 | 0.749 | 0.75 | 0.798 | 0.307 | 0.387 | 0.351 | 0.323 | 0.822 | 1.16 | 1.02 | 0.593 | 0.788 |
| NCI-H23 | 0.496 | 0.539 | 0.629 | 0.454 | 0.155 | 0.744 | 0.667 | 0.678 | 0.398 | 0.319 | 0.306 | 0.272 | 0.23 | 0.215 | 0.265 | 0.283 | 0.25 | 0.269 |
| EKVX | 0.362 | 0.417 | 0.373 | 0.333 | 0.315 | 0.891 | 1.01 | 1.01 | 0.993 | 0.307 | 0.391 | 0.36 | 0.359 | 0.679 | 0.832 | 0.847 | 0.647 | 0.521 |
| NCI-H1944 | 0.333 | 0.312 | 0.329 | 0.252 | 0.241 | 1.16 | 1.13 | 1.24 | 1.18 | 0.44 | 0.406 | 0.497 | 0.411 | 0.484 | 0.449 | 0.523 | 0.388 | 0.349 |
| EPLC-272H | 0.329 | 0.337 | 0.326 | 0.246 | 0.303 | 0.884 | 1.03 | 1.01 | 1.11 | 0.318 | 0.375 | 0.378 | 0.403 | 0.21 | 0.252 | 0.337 | 0.199 | 0.15 |
